Results on one compound are retold here after patent US6588142B2, “Method of protecting plants from cold injury” (North Carolina State University, priority 2000, dated 2003).

Data set [1] deals with peanut. The data set is described as follows: peanut field study, frost injury rating. The class given is in vivo. Particulars: for Frost Injury, Pr > |T|: frost 66 days after last spray. The text has this: (§1) A peanut field was fumigated on April 28 with Metam sodium to control Cylindrocladium. The test plants were planted on May 22 with 16 different varieties of seed (Andru 93; Georgia Green; Tam Run 98; AT120; Southern Runner; Georgia Gold; Georgia Runner; 6K7WIDLEIL; FLA97R; FLAMDR98; FLA84x9B; NC7; VA93B; Perry; VA92R; VA98R), with a two-row planter. Temik and rhizobium were applied in furrow at standard rates. The spray date for the first treatment was July 20; the spray date for the second treatment was August 19. A tractor-mounted sprayer was used for all treatment sprays, with three hollow-cone nozzles per row at 40 psi, and 15 gal water/acre, at a height to cover the entire plant. Only the two treatment rows were sprayed. There were two unsprayed border rows between each treatment, to minimize interplot interference, and to assure even distribution of disease across plots. Herbicides, insecticides, and early leafspot control were applied according to standard practices across the field. Particular treatments were as follows:
(§2) (2) 15.22 fl. oz. Omega 500™ fluazinam 500F/acre (per spray)
(§3) (3) 30.44 fl. oz. Omega 500™ fluazinam 500F/acre (per spray)
(§4) (4) 60.88 fl. oz. Omega 500™ fluazinam 500F/acre (per spray)
(§5) (5) 32.0 fl. oz. Rovral™ brand iprodione+7.68 fl. oz. Nufilm™ adjuvant per acre (per spray)
Frost occurred on October 25. Frost ratings were done on November 2d. Rating Index: 1<5% green leaves, 4>50% green leaves; values between 1 and 4 were scaled from 5 to 50%. Stems were not rated, and varied from completely brown, to black, to bright green. When rating percentage of green leaves in a plot, those obviously dead from disease were ignored, and the rating was based on the remaining leaves.
(§6) Data: Statistics were run using the SAS System using the General Linear Models Procedure.

The test system of the next data set is Sclerotinia blight. The data set can be described thus: peanut field study, disease incidence. The class given is in vivo.
Text: as §1, §2, §3, §4, §5, §6

Data set [2] relates to peanut. The data set can be described thus: peanut field study, yield per acre. It is filed as in vivo.
Text: as §1, §2, §3, §4, §5
Peanuts were dug on November 10, and harvested on November 15. Moisture samples were taken from untreated plots of each variety. Yields were adjusted to 9% moisture.
as §6

For data set [3] the following is noted: pH 7; cited from earlier work.
Where [4] appears, read: treatment effect on various peanut cultivars.

Consider `O=[N+]([O-])c1cc(C(F)(F)F)c(Cl)c([N+](=O)[O-])c1Nc1ncc(C(F)(F)F)cc1Cl` [fluazinam], for which the “Frost Injury, Pr > |T|” value with peanut [1] (High Rate vs Control) and with peanut [1] (High Rate vs Rovral) was 0.0001 in each case. Moreover, the frost protection entry in the data set on peanut [1] (high rate, compared to both Untreated Control and Rovral) is on record as “statistically significantly better frost protection”. Further, the frost injury result in the data set on peanut [1] (setting [4]) is given as “significantly reduced”. The “Disease Incidence, Pr > |T|” value came out at 0.0001 in the data set on Sclerotinia blight (High Rate vs Control) and 0.3911 with Sclerotinia blight (High Rate vs Rovral). Further, the disease control entry is given as “not significantly better” in the data set with Sclerotinia blight (High Rate vs Rovral) and “statistically significantly better disease control” in the data set with Sclerotinia blight (high rate, vs Untreated Control). Moreover, the Sclerotinia blight result in the data set on Sclerotinia blight (setting [4]) is “significantly reduced”. The “Yield/Acre, Pr > |T|” value in the data set on peanut [2] (High Rate vs Control) and in the data set on peanut [2] (High Rate vs Rovral) was 0.0001 in each case. The yields entry in the data set with peanut [2] (high rate, vs both Untreated Control and Rovral) is “statistically significantly higher”; with peanut [2] (treatment effect), “significantly higher”. In data set [3], the water solubility was 0.071 ppm.
